Tested on: AS mice (Ube3am−/p+ KO mice) with LTP deficits
Test: LTP deficits in cognitively deficient (AS) mice; fEPSP recording in hippocampal slices after oral treatment
Format: in vivo
Description: For all behavioral and electrophysiology experiments female Ube3am−/p+ KO mice (i.e., AS mice) were crossed with wild-type males, to generate heterozygous AS mice and littermate controls in the F1 hybrid 12952-057BL/6 background. The AS mice have cognitive deficits, including long term potentiation (LTP) deficits.
Control mice (“wt”) were treated with vehicle while AS mice were treated with vehicle or MK-8998 (“CX”) at 30 mg/kg or at 60 mg/kg dose given orally twice per day in the morning and afternoon. Dosing was carried out for one week before testing, then behavioral tests were carried out on the animals over a 5-week period.
After the behavioural tests, animals remained under treatment until the animals were sacrificed one hour after the last drug administration. […] LTP was evoked using the 10 Theta burst protocol (10 trains of 4 stimuli at 100 Hz, 200 ms apart), performed at two-third of the maximum fEPSP. fEPSP sizes were recorded once per minute. Potentiation was measured as the normalized increase of the mean fEPSP slope for the duration of the baseline. […] Final LTP was determined over the last 10 min of the recording. […]
LTP was evoked using the 10 Theta burst protocol (10 trains of 4 stimuli at 100 Hz, 200 ms apart), performed at two-third of the maximum fEPSP. Final LTP was determined over the last 10 min of the recording. […]

CC(C)c1ccc(CC(=O)N[C@H](C)c2ccc(OCC(F)(F)F)cn2)cc1 [MK-8998]
P, post hoc Bonferroni multiple comparisons, AS Vehicle vs treated (LTP) (30 mg/kg): 0.01
P, post hoc Bonferroni multiple comparisons, AS Vehicle vs treated (LTP) (60 mg/kg): 0.02
